EP4603105A1, “PHARMACEUTICAL COMPOSITION CONTAINING CYCLIC COMPOUND HAVING SELECTIVE KRAS INHIBITORY EFFECT AGAINST HRAS AND NRAS” (CHUGAI SEIYAKU KABUSHIKI KAISHA, priority 2022, dated 2024)
Where a SMILES comes first, the peptide text is derived from it. Bridges are numbered along the chain shown (N, C = ends). [ ]: non-standard residue; d: D form. The star is where a group is joined. hPhe(3-Cl-4-CF3) = N[C@@H](CCc1ccc(C(F)(F)F)c(Cl)c1)C(=O)O; NPrPhe(4-CF3) = CCCN[C@@H](Cc1ccc(C(F)(F)F)cc1)C(=O)O; NEtPhe(4-CF3) = CCN[C@@H](Cc1ccc(C(F)(F)F)cc1)C(=O)O; hPhe(3,4-Cl2) = N[C@@H](CCc1ccc(Cl)c(Cl)c1)C(=O)O; NMeGly(cPent) = CN[C@H](C(=O)O)C1CCCC1; NMeD = CN[C@@H](CC(=O)O)C(=O)O; NMeL = CN[C@@H](CC(C)C)C(=O)O; Morpholide = C1CN(*)CCO1; NMeA = CN[C@@H](C)C(=O)O; Ac5c = NC1(C(=O)O)CCCC1; Aze = O=C(O)[C@@H]1CCN1; Sar = CNCC(=O)O

How the values were obtained:
[1] = tested on: human lung cancer strain NCI-H441; format: cell-based
Procedure, shortened: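 Step one: dispense the test compound in serial DMSO dilutions. Step three: add the reagent and measure […].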

[2] = target: HRAS wild-type protein (Homo sapiens, UniProt P01112); experiment: Binding to HRAS by surface plasmon resonance (SPR), KD and KD ratio to KRAS
Chain of HRAS wild-type protein (P01112 whole entry): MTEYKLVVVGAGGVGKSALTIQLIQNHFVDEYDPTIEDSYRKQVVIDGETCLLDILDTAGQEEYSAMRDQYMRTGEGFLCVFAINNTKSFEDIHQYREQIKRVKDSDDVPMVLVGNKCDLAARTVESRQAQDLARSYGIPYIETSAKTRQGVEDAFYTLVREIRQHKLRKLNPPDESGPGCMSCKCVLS
Procedure, shortened: (§1)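 Running buffer contained 10 µM GDP and 10 mM MgCl2 to keep RAS in the GDP state, with 4% DMSO at pH 7.4. Compounds were flowed at 100 µL/min in 75 s steps of rising concentration over captured biotin-Avi RAS at 30°C. Sensorgrams were fitted 1:1 for KD.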

[3] = target: GDP-bound NRAS wild-type protein (Homo sapiens, UniProt P01111); experiment: Binding to NRAS by surface plasmon resonance (SPR), KD and KD ratio to KRAS
Chain of GDP-bound NRAS wild-type protein (P01111 whole entry): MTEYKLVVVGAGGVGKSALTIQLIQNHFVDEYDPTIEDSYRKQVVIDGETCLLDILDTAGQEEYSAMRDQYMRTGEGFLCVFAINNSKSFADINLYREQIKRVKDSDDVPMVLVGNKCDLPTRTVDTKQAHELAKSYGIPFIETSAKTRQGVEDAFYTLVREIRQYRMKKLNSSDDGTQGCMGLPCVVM
Procedure, shortened: as §1

[4] = ratio of KD value for HRAS wild-type protein to KD value for KRAS (SPR)
[5] = ratio of KD value for GDP-bound NRAS wild-type protein to KD value for KRAS (SPR)
[6] = ratio of KD for HRAS wild-type protein to KD for KRAS
[7] = ratio of KD for GDP-bound NRAS wild-type protein to KD for KRAS

| Structure (SMILES) | IC50 [1] [µM] | HRAS /KRAS [2, 6] | NRAS /KRAS [3, 7] | other results |
| --- | --- | --- | --- | --- |
| CC[C@H](C)[C@@H]1NC(=O)[C@H](CC(C)C)N(C)C(=O)C[C@@H](C(=O)N2CCOCC2)N(C)C(=O)[C@H](C2CCCC2)N(C)C(=O)C2(CCC2)NC(=O)[C@]2(C)CCCN2C(=O)[C@H](CCc2cc(F)c(C(F)(F)F)c(F)c2)NC(=O)CN(C)C(=O)[C@H](Cc2ccc(C(F)(F)F)cc2)N2CCCC[C@@H](C2=O)N(C)C(=O)CN(C)C1=O [PP0808] | 0.0167 | B (a compound having 3 or more and less than 10 is denoted as B) | B (a compound having 3 or more and less than 10 is denoted as B) | – |
| CCO[C@@H]1C[C@H]2C(=O)NC3(CCC3)C(=O)N(C)[C@@H](C3CCCC3)C(=O)N(C)[C@H](C(=O)N(C)CCOC)CC(=O)N(C)[C@@H](CC)C(=O)N[C@@H]([C@@H](C)CC)C(=O)N(C)CC(=O)N(C)[C@H]3C/C=C\CCN(C3=O)[C@@H](Cc3ccc(C(F)(F)F)cc3)C(=O)N(C)CC(=O)N[C@@H](CCc3cc(F)c(C(F)(F)F)c(F)c3)C(=O)N2C1 [PP1316] | 0.0132 | – | – | HRAS /KRAS ([2]; ratio of KD with respect to HRAS wild-type protein to KD with respect to KRAS): A (a compound having 10 or more and less than 20 is denoted as A); NRAS /KRAS ([3]; ratio of KD with respect to GDP-bound NRAS wild-type protein to KD with respect to KRAS): A (a compound having 10 or more and less than 20 is denoted as A) |
| CCC[C@H]1C(=O)N[C@@H]([C@@H](C)CC)C(=O)N(C)CC(=O)N(C)[C@H]2C/C=C\CCN(C2=O)[C@@H](Cc2ccc(C(F)(F)F)cc2)C(=O)N(C)CC(=O)N[C@@H](CCc2ccc(C(F)(F)F)c(Cl)c2)C(=O)N2CCCCC[C@H]2C(=O)NC2(CC(C)(C)C2)C(=O)N(C)[C@@H](C(CC)CC)C(=O)N(C)[C@H](C(=O)N(C)C)CC(=O)N1C [PP2964] | 0.0501 | A (a compound having 10 or more and less than 20 is denoted as A) | AA (a compound having 20 or more is denoted as AA) | – |
| CC[C@H](C)[C@@H]1NC(=O)[C@H](CC2CC2)N(C)C(=O)C[C@@H](C(=O)N2CCCC2)N(C)C(=O)[C@H](C2CCCC2)N(C)C(=O)C2(CCC2)NC(=O)[C@@H]2C[C@H](C)CN2C(=O)[C@H](CCc2cc(F)c(C(F)(F)F)c(F)c2)NC(=O)CN(C)C(=O)[C@H](Cc2ccc(C(F)(F)F)cc2)N2CC/C=C\C[C@@H](C2=O)N(C)C(=O)CN(C)C1=O [PP1510] | 0.0345 | – | – | HRAS /KRAS [2, 4]: A (a compound having 10 or more and less than 20 is denoted as A); NRAS /KRAS [3, 5]: AA (a compound having 20 or more is denoted as AA) |

Stronger by IC50 [1], values ahead:

| IC50 [1] [µM] | Structure (SMILES) | HRAS /KRAS [2, 6] | NRAS /KRAS [3, 7] | other results |
| --- | --- | --- | --- | --- |
| 0.0052 | CCO[C@@H]1C[C@H]2C(=O)NC3(CC(C)(C)C3)C(=O)N(C)[C@@H](C3CCCC3)C(=O)N(C)[C@H](C(=O)N(C)C)CC(=O)N(C)[C@@H](CC(C)C)C(=O)N[C@@H]([C@@H](C)CC)C(=O)N(C)CC(=O)N(C)[C@H]3C/C=C\CCN(C3=O)[C@@H](Cc3ccc(C(F)(F)F)cc3)C(=O)N(C)CC(=O)N[C@@H](CCc3cc(F)c(Cl)c(F)c3)C(=O)N2C1 [PP1761] | – | – | HRAS /KRAS [2, 4]: A (a compound having 10 or more and less than 20 is denoted as A); NRAS /KRAS [3, 5]: A (a compound having 10 or more and less than 20 is denoted as A) |
| 0.005 | CC[C@H](C)[C@@H]1NC(=O)[C@H](CC(C)C)N(C)C(=O)C[C@@H](C(=O)N2CCOCC2)N(C)C(=O)[C@H](C2CCCC2)N(C)C(=O)C2(CCCC2)NC(=O)[C@@H]2CCCN2C(=O)[C@H](CCc2ccc(Cl)c(Cl)c2)NC(=O)CN(C)C(=O)[C@H](Cc2ccc(C(F)(F)F)cc2)N(CC)C(=O)[C@@H]2CCN2C(=O)[C@H](C)N(C)C1=O [PP0223] ([NMeL]I[NMeA][Aze][NEtPhe(4-CF3)][Sar][hPhe(3,4-Cl2)]P[Ac5c][NMeGly(cPent)][NMeD]-Morpholide; lactam N-11) | C (A compound having a KD ratio of 0.1 or more and less than 3 is denoted as C) | C (A compound having a KD ratio of 0.1 or more and less than 3 is denoted as C) | – |
| 0.0062 | CCO[C@@H]1C[C@H]2C(=O)NC3(CCC3)C(=O)N(C)[C@@H](C3CCCC3)C(=O)N(C)[C@H](C(=O)N3CCOCC3)CC(=O)N(C)[C@@H](C)C(=O)N[C@@H]([C@@H](C)CC)C(=O)N(C)CC(=O)N(C)[C@H]3CCCCN(C3=O)[C@@H](Cc3ccc(C(F)(F)F)cc3)C(=O)N(C)CC(=O)N[C@@H](CCc3cc(F)c(C(F)(F)F)c(F)c3)C(=O)N2C1 [PP0585] | – | – | HRAS /KRAS ([2]; ratio of the KD value with respect to HRAS wild-type protein to the KD value with respect to KRAS): B (a compound having 3 or more and less than 10 is denoted as B); NRAS /KRAS ([3]; ratio of the KD value with respect to GDP-bound NRAS wild-type protein to the KD value with respect to KRAS): B (a compound having 3 or more and less than 10 is denoted as B) |
| 0.0099 | CCCN1C(=O)[C@@H]2CCN2C(=O)[C@H](C)N(C)C(=O)[C@H]([C@@H](C)CC)NC(=O)[C@H](CC(C)C)NC(=O)C[C@@H](C(=O)N2CCOCC2)N(C)C(=O)[C@H](C2CCCC2)N(C)C(=O)C2(CCCC2)NC(=O)[C@@H]2CCCN2C(=O)[C@H](CCc2ccc(C(F)(F)F)c(Cl)c2)NC(=O)CN(C)C(=O)[C@@H]1Cc1ccc(C(F)(F)F)cc1 [PP0154] (LI[NMeA][Aze][NPrPhe(4-CF3)][Sar][hPhe(3-Cl-4-CF3)]P[Ac5c][NMeGly(cPent)][NMeD]-Morpholide; lactam N-11) | B (a compound having 3 or more and less than 10 is denoted as B) | C (A compound having a KD ratio of 0.1 or more and less than 3 is denoted as C) | – |
